Reference: PMC5218480 (PLoS ONE, 2017)

Tested on: MV-4-11 cells
Test: Gene expression microarray analysis (Affymetrix PrimeView) and GSEA
Type: cell-based, human
Parameters: RFU PODN (11730768_x_at) / Fold change /veh PODN (11730768_x_at) / RFU LINC00158 (11744669_a_at) / Fold change /veh LINC00158 (11744669_a_at) / RFU DUSP10 (11751237_a_at) / Fold change /veh DUSP10 (11751237_a_at) / RFU ID3 (11757404_x_at) / Fold change /veh ID3 (11757404_x_at) / RFU PLEKHG5 (11737974_s_at) / Fold change /veh PLEKHG5 (11737974_s_at) / RFU LRRC4B (11730491_at) / Fold change /veh LRRC4B (11730491_at) / RFU GIMAP4 (11747438_a_at) / Fold change /veh GIMAP4 (11747438_a_at) / RFU KRT8 (11758183_x_at) / Fold change /veh KRT8 (11758183_x_at) / RFU CNN1 (11734310_a_at) / Fold change /veh CNN1 (11734310_a_at) / RFU VPS37D (11726825_at) / Fold change /veh VPS37D (11726825_at) / RFU C10orf10 (11716522_x_at) / Fold change /veh C10orf10 (11716522_x_at) / RFU KIR2DL2 /// KIR2DL4 /// KIR2DL5A /// KIR2DL5B /// KIR2DS1 /// KIR2DS2 /// KIR2DS3 /// KIR2DS4 /// KIR3DL3 /// KIR3DL3 /// KIR3DS1 (11738374_at) / Fold change /veh KIR2DL2 /// KIR2DL4 /// KIR2DL5A /// KIR2DL5B /// KIR2DS1 /// KIR2DS2 /// KIR2DS3 /// KIR2DS4 /// KIR3DL3 /// KIR3DL3 /// KIR3DS1 (11738374_at) / RFU C1QL1 (11718748_at) / Fold change /veh C1QL1 (11718748_at) / RFU TMPRSS4 (11747572_a_at) / Fold change /veh TMPRSS4 (11747572_a_at) / RFU HAMP (11756126_x_at) / Fold change /veh HAMP (11756126_x_at) / RFU RNFT2 (11725882_a_at) / Fold change /veh RNFT2 (11725882_a_at) / RFU NR4A2 (11747474_a_at) / Fold change /veh NR4A2 (11747474_a_at) / RFU ABCC12 (11746883_a_at) / Fold change /veh ABCC12 (11746883_a_at) / RFU TMEM136 (11760407_x_at) / Fold change /veh TMEM136 (11760407_x_at) / RFU CLDN22 /// WWC2 (11732394_at) / Fold change /veh CLDN22 /// WWC2 (11732394_at) / RFU HLA-DPB1 (11760878_x_at) / Fold change /veh HLA-DPB1 (11760878_x_at) / RFU SPINT1 (11716480_a_at) / Fold change /veh SPINT1 (11716480_a_at) / RFU GAP43 (11754022_s_at) / Fold change /veh GAP43 (11754022_s_at) / RFU A4GNT (11735810_at) / Fold change /veh A4GNT (11735810_at) / RFU PRB3 (11715151_x_at) / Fold change /veh PRB3 (11715151_x_at) / RFU TUBB4B (11761932_at) / Fold change /veh TUBB4B (11761932_at) / RFU CAPN14 (11732068_a_at) / Fold change /veh CAPN14 (11732068_a_at) / RFU TMCC2 (11721928_a_at) / Fold change /veh TMCC2 (11721928_a_at) / RFU IRGQ (11745062_a_at) / Fold change /veh IRGQ (11745062_a_at) / RFU FAM174B (11720279_a_at) / Fold change /veh FAM174B (11720279_a_at) / RFU TMPRSS4 (11748680_a_at) / Fold change /veh TMPRSS4 (11748680_a_at) / RFU FAM212B (11763350_a_at) / Fold change /veh FAM212B (11763350_a_at) / RFU PLEKHG5 (11743358_a_at) / Fold change /veh PLEKHG5 (11743358_a_at) / RFU ZSCAN30 (11745921_a_at) / Fold change /veh ZSCAN30 (11745921_a_at) / RFU CMKLR1 (11741424_a_at) / Fold change /veh CMKLR1 (11741424_a_at) / RFU LOC101060620 /// MAPK8IP1 (11723275_at) / Fold change /veh LOC101060620 /// MAPK8IP1 (11723275_at) / RFU SPTSSB (11747773_x_at) / Fold change /veh SPTSSB (11747773_x_at) / RFU PRSS12 (11739890_at) / Fold change /veh PRSS12 (11739890_at) / RFU BIN1 (11741810_x_at) / Fold change /veh BIN1 (11741810_x_at) / RFU WNT11 (11732464_a_at) / Fold change /veh WNT11 (11732464_a_at) / RFU C10orf10 (11716521_a_at) / Fold change /veh C10orf10 (11716521_a_at) / RFU C5orf56 (11738089_at) / Fold change /veh C5orf56 (11738089_at) / RFU CYB561 (11721691_x_at) / Fold change /veh CYB561 (11721691_x_at) / RFU ANKRD19P (11752326_a_at) / Fold change /veh ANKRD19P (11752326_a_at) / RFU OR2T12 /// OR2T33 /// OR2T8 (11738714_s_at) / Fold change /veh OR2T12 /// OR2T33 /// OR2T8 (11738714_s_at) / RFU VCAN (11748164_a_at) / Fold change /veh VCAN (11748164_a_at) / RFU JSRP1 (11732532_at) / Fold change /veh JSRP1 (11732532_at) / RFU KRTAP10-11 (11738290_x_at) / Fold change /veh KRTAP10-11 (11738290_x_at) / RFU MYO3A (11730013_a_at) / Fold change /veh MYO3A (11730013_a_at) / RFU EBF3 (11725865_a_at) / Fold change /veh EBF3 (11725865_a_at) / RFU CAMK2N1 (11719241_x_at) / Fold change /veh CAMK2N1 (11719241_x_at) / RFU C5orf56 (11738088_a_at) / Fold change /veh C5orf56 (11738088_a_at) / RFU OLFML3 (11715873_a_at) / Fold change /veh OLFML3 (11715873_a_at) / RFU LOC100653217 /// NTM (11731650_a_at) / Fold change /veh LOC100653217 /// NTM (11731650_a_at) / RFU MAPK11 (11762145_a_at) / Fold change /veh MAPK11 (11762145_a_at) / RFU FIZ1 (11724087_x_at) / Fold change /veh FIZ1 (11724087_x_at) / RFU OASL (11726364_x_at) / Fold change /veh OASL (11726364_x_at) / RFU SOX15 (11748057_x_at) / Fold change /veh SOX15 (11748057_x_at) / RFU CD79A (11719716_a_at) / Fold change /veh CD79A (11719716_a_at) / RFU HIST1H1D (11736915_at) / Fold change /veh HIST1H1D (11736915_at) / RFU CASKIN2 (11723855_a_at) / Fold change /veh CASKIN2 (11723855_a_at) / RFU LOC730098 (11760151_x_at) / Fold change /veh LOC730098 (11760151_x_at) / RFU OR4N2 (11742367_at) / Fold change /veh OR4N2 (11742367_at) / RFU PRRT2 (11749266_a_at) / Fold change /veh PRRT2 (11749266_a_at) / RFU SNX32 (11753110_a_at) / Fold change /veh SNX32 (11753110_a_at) / RFU CDHR5 (11726645_a_at) / Fold change /veh CDHR5 (11726645_a_at) / RFU RCAN1 (11760418_a_at) / Fold change /veh RCAN1 (11760418_a_at) / RFU FAM167A (11723789_a_at) / Fold change /veh FAM167A (11723789_a_at) / RFU FAM26E (11764081_at) / Fold change /veh FAM26E (11764081_at) / RFU ISYNA1 (11749810_s_at) / Fold change /veh ISYNA1 (11749810_s_at) / RFU ACY1 (11761880_at) / Fold change /veh ACY1 (11761880_at) / RFU 11764098_at / Fold change /veh 11764098_at / RFU SAMD14 (11745864_x_at) / Fold change /veh SAMD14 (11745864_x_at) / RFU NPB (11741838_a_at) / Fold change /veh NPB (11741838_a_at) / RFU TMPRSS6 (11731388_a_at) / Fold change /veh TMPRSS6 (11731388_a_at) / RFU KRTAP10-2 (11738614_at) / Fold change /veh KRTAP10-2 (11738614_at) / RFU ARHGAP8 /// PRR5-ARHGAP8 (11727945_x_at) / Fold change /veh ARHGAP8 /// PRR5-ARHGAP8 (11727945_x_at) / RFU KRTAP5-7 /// NADSYN1 (11734609_at) / Fold change /veh KRTAP5-7 /// NADSYN1 (11734609_at) / RFU RASL12 (11751679_a_at) / Fold change /veh RASL12 (11751679_a_at) / RFU CDKN2B (11736163_a_at) / Fold change /veh CDKN2B (11736163_a_at) / RFU PRF1 (11729649_at) / Fold change /veh PRF1 (11729649_at) / RFU, ZNF638 /// ZNF638-IT1 / Fold change vs veh, ZNF638 /// ZNF638-IT1 / RFU, PANK3 / Fold change vs veh, PANK3 / RFU, SH3YL1 / Fold change vs veh, SH3YL1 / RFU, ZEB2 / Fold change vs veh, ZEB2 / RFU, NRIP1 / Fold change vs veh, NRIP1 / RFU, PTTG1IP / Fold change vs veh, PTTG1IP / RFU, CAPN2 / Fold change vs veh, CAPN2 / RFU, MED14 / Fold change vs veh, MED14 / RFU, SNORA58 / Fold change vs veh, SNORA58 / RFU, C1orf63 / Fold change vs veh, C1orf63 / RFU, LRRFIP1 / Fold change vs veh, LRRFIP1 / RFU, NDUFAF7 / Fold change vs veh, NDUFAF7 / RFU, SLC12A2 / Fold change vs veh, SLC12A2 / RFU, IBTK / Fold change vs veh, IBTK / RFU, ESF1 / Fold change vs veh, ESF1 / Fold change vs veh, TMEM50B / RFU, TAOK1 / Fold change vs veh, TAOK1 / RFU, ACBD3 / Fold change vs veh, ACBD3 / RFU, TMA16 / Fold change vs veh, TMA16 / RFU, RWDD3 / Fold change vs veh, RWDD3 / RFU, BCAT1 / Fold change vs veh, BCAT1 / RFU, EDEM3 / Fold change vs veh, EDEM3 / RFU, TMEM33 / Fold change vs veh, TMEM33 / RFU, WDR75 / Fold change vs veh, WDR75 / RFU, AHCTF1 / Fold change vs veh, AHCTF1 / RFU, TFRC / Fold change vs veh, TFRC / RFU, ZDHHC17 / Fold change vs veh, ZDHHC17 / RFU, NOM1 / Fold change vs veh, NOM1 / RFU, ARL8B / Fold change vs veh, ARL8B / RFU, ZBTB11 / Fold change vs veh, ZBTB11 / RFU, TAMM41 / Fold change vs veh, TAMM41 / RFU, KIAA1704 /// LOC100996395 / Fold change vs veh, KIAA1704 /// LOC100996395 / RFU, ING1 / Fold change vs veh, ING1 / RFU, TRMT61B / Fold change vs veh, TRMT61B / RFU, FUBP3 / Fold change vs veh, FUBP3 / RFU, TP53 / Fold change vs veh, TP53 / RFU, TNKS2 / Fold change vs veh, TNKS2 / RFU, ZFP14 / Fold change vs veh, ZFP14 / RFU, ACTR2 / Fold change vs veh, ACTR2 / RFU, PPP3R1 / Fold change vs veh, PPP3R1 / RFU, PIK3R1 / Fold change vs veh, PIK3R1 / RFU, HNRNPA1 / Fold change vs veh, HNRNPA1 / RFU, RNF170 / Fold change vs veh, RNF170 / RFU, ZNF28 / Fold change vs veh, ZNF28 / RFU, RNGTT / Fold change vs veh, RNGTT / RFU, OGT / Fold change vs veh, OGT / RFU, BRD1 / Fold change vs veh, BRD1 / RFU, MARS / Fold change vs veh, MARS / RFU, ZNF655 / Fold change vs veh, ZNF655 / RFU, FAHD1 / Fold change vs veh, FAHD1 / RFU, BDP1 / Fold change vs veh, BDP1 / RFU, LRRCC1 / Fold change vs veh, LRRCC1 / RFU, ARID1A / Fold change vs veh, ARID1A / RFU, ZNF146 / Fold change vs veh, ZNF146 / RFU, ZNF330 / Fold change vs veh, ZNF330 / RFU, GPN3 / Fold change vs veh, GPN3 / RFU, C9orf123 / Fold change vs veh, C9orf123 / RFU, N4BP2L2 / Fold change vs veh, N4BP2L2 / RFU, ARFIP1 / Fold change vs veh, ARFIP1 / RFU, FAM179B / Fold change vs veh, FAM179B / RFU, BCL10 / Fold change vs veh, BCL10 / RFU, UHRF1BP1L / Fold change vs veh, UHRF1BP1L / RFU, BET1 / Fold change vs veh, BET1 / RFU, CNOT2 / Fold change vs veh, CNOT2 / RFU, ZNF268 / Fold change vs veh, ZNF268 / Fold change vs veh, ZNF507 / RFU, DGCR2 / Fold change vs veh, DGCR2 / RFU, WDSUB1 / Fold change vs veh, WDSUB1 / Fold change vs veh, HSP90B1 /// MIR3652 / RFU, ADSS / Fold change vs veh, ADSS / RFU, GK / Fold change vs veh, GK / RFU, ZNF148 / Fold change vs veh, ZNF148 / RFU, TAF9 / Fold change vs veh, TAF9 / RFU, SLC1A5 / Fold change vs veh, SLC1A5 / RFU, SLMO2 / Fold change vs veh, SLMO2 / RFU, ABCC4 / Fold change vs veh, ABCC4 / RFU, LOC101060439 /// RAP1B / Fold change vs veh, LOC101060439 /// RAP1B / RFU, RFX7 / Fold change vs veh, RFX7 / RFU, GTPBP10 / Fold change vs veh, GTPBP10 / RFU, CNEP1R1 / Fold change vs veh, CNEP1R1 / RFU, BIVM-ERCC5 /// ERCC5 / Fold change vs veh, BIVM-ERCC5 /// ERCC5 / RFU, ILF3 / Fold change vs veh, ILF3 / RFU 11762660_at / Fold change /veh 11762660_at / RFU VCAN (11757783_s_at) / Fold change /veh VCAN (11757783_s_at) / RFU DDX43 (11728927_at) / Fold change /veh DDX43 (11728927_at) / RFU KRT8 (11758188_x_at) / Fold change /veh KRT8 (11758188_x_at) / RFU NKD1 (11759106_at) / Fold change /veh NKD1 (11759106_at) / RFU SRD5A1 (11742802_a_at) / Fold change /veh SRD5A1 (11742802_a_at) / RFU TPSAB1 /// TPSB2 (11721975_s_at) / Fold change /veh TPSAB1 /// TPSB2 (11721975_s_at) / RFU GSTM3 (11746129_a_at) / Fold change /veh GSTM3 (11746129_a_at) / RFU IL23R (11737362_x_at) / Fold change /veh IL23R (11737362_x_at) / RFU TMEM51 (11727254_a_at) / Fold change /veh TMEM51 (11727254_a_at) / RFU PIWIL2 (11732686_x_at) / Fold change /veh PIWIL2 (11732686_x_at) / RFU ORM1 (11744905_x_at) / Fold change /veh ORM1 (11744905_x_at) / RFU CCDC152 (11743942_at) / Fold change /veh CCDC152 (11743942_at) / RFU ECM1 (11717891_a_at) / Fold change /veh ECM1 (11717891_a_at) / RFU IL23R (11748794_a_at) / Fold change /veh IL23R (11748794_a_at) / RFU TNFAIP8L3 (11732012_x_at) / Fold change /veh TNFAIP8L3 (11732012_x_at) / RFU MBOAT4 (11741988_at) / Fold change /veh MBOAT4 (11741988_at) / RFU 11764193_at / Fold change /veh 11764193_at / RFU TMEM53 (11763286_at) / Fold change /veh TMEM53 (11763286_at) / RFU MAGEB2 (11727129_at) / Fold change /veh MAGEB2 (11727129_at) / RFU TMEM200A (11744735_a_at) / Fold change /veh TMEM200A (11744735_a_at) / RFU CCDC152 (11751479_a_at) / Fold change /veh CCDC152 (11751479_a_at) / RFU FAM211A (11726209_a_at) / Fold change /veh FAM211A (11726209_a_at) / RFU RGS16 (11746705_a_at) / Fold change /veh RGS16 (11746705_a_at) / RFU VCAN (11755009_s_at) / Fold change /veh VCAN (11755009_s_at) / RFU RHOB (11743442_s_at) / Fold change /veh RHOB (11743442_s_at) / RFU RGS16 (11720943_a_at) / Fold change /veh RGS16 (11720943_a_at) / RFU RGS16 (11720944_at) / Fold change /veh RGS16 (11720944_at) / RFU, VPS4B / Fold change vs veh, VPS4B / RFU, CREB1 / Fold change vs veh, CREB1 / RFU, DNAJC13 / Fold change vs veh, DNAJC13 / RFU, GNAQ / Fold change vs veh, GNAQ / RFU, CDK5R1 / Fold change vs veh, CDK5R1 / RFU, ZRANB3 / Fold change vs veh, ZRANB3 / RFU, CUL4A / Fold change vs veh, CUL4A / RFU, CCNY / Fold change vs veh, CCNY / RFU, UFL1 / Fold change vs veh, UFL1 / RFU, COG3 / Fold change vs veh, COG3 / RFU, DIAPH2 / Fold change vs veh, DIAPH2 / RFU, SKA2 / Fold change vs veh, SKA2 / RFU, AFF3 / Fold change vs veh, AFF3 / RFU, LMF1 / Fold change vs veh, LMF1 / RFU, IPO11 / Fold change vs veh, IPO11 / RFU, DFFB / Fold change vs veh, DFFB / RFU, FOXP1 / Fold change vs veh, FOXP1 / RFU, CARD8 / Fold change vs veh, CARD8 / RFU, STRN3 / Fold change vs veh, STRN3 / RFU, ADK / Fold change vs veh, ADK / RFU, RASSF2 / Fold change vs veh, RASSF2 / RFU, WIPF1 / Fold change vs veh, WIPF1 / RFU, LARP1B / Fold change vs veh, LARP1B / RFU, RASA1 / Fold change vs veh, RASA1 / RFU, RB1 / Fold change vs veh, RB1 / RFU, PPFIA1 / Fold change vs veh, PPFIA1 / RFU, MAT2A / Fold change vs veh, MAT2A / RFU, CCT5 / Fold change vs veh, CCT5 / RFU, WDR92 / Fold change vs veh, WDR92 / RFU, CUX1 / Fold change vs veh, CUX1 / RFU, TTC7A / Fold change vs veh, TTC7A / RFU, TMEM135 / Fold change vs veh, TMEM135 / RFU, DEPTOR / Fold change vs veh, DEPTOR / RFU, CPM / Fold change vs veh, CPM / RFU, DNAJB6 / Fold change vs veh, DNAJB6 / RFU, CACNA2D3 / Fold change vs veh, CACNA2D3 / RFU, DTX4 / Fold change vs veh, DTX4 / RFU, TFCP2 / Fold change vs veh, TFCP2 / RFU, GMCL1 /// GMCL1P1 / Fold change vs veh, GMCL1 /// GMCL1P1 / RFU, AEBP2 / Fold change vs veh, AEBP2 / RFU, SNHG1 /// SNORD22 /// SNORD25 /// SNORD26 /// SNORD27 /// SNORD28 /// SNORD29 /// SNORD31 / Fold change vs veh, SNHG1 /// SNORD22 /// SNORD25 /// SNORD26 /// SNORD27 /// SNORD28 /// SNORD29 /// SNORD31 / Fold change (Aza/veh), C12orf56 (ProbeSet 11735607_a_at) / Fold change (ACY-1035/veh), C12orf56 (ProbeSet 11735607_a_at) / Fold change (Aza/veh), FGFR1OP (ProbeSet 11751329_s_at) / Fold change (ACY-1035/veh), FGFR1OP (ProbeSet 11751329_s_at) / Fold change (Aza/veh), VPS36 (ProbeSet 11739960_a_at) / Fold change (ACY-1035/veh), VPS36 (ProbeSet 11739960_a_at) / RFU SYPL1 (11715823_x_at) / Fold change /veh SYPL1 (11715823_x_at) / RFU IGFBP7 (11715501_s_at) / Fold change /veh IGFBP7 (11715501_s_at) / RFU REEP3 (11722064_at) / Fold change /veh REEP3 (11722064_at) / RFU IGLL1 (11728026_x_at) / Fold change /veh IGLL1 (11728026_x_at): dose or concentration left out as unconfirmed
Settings: ProbeSet 11730501_a_at; LIST D

SMILES: Nc1ccc(-c2cccs2)cc1NC(=O)c1ccc2c(c1)cc(C1CC1)n2CCN1CCOCC1 [ACY-1035]
- Fold change vs veh, CACNA2D3: 1.05
